From patent US7439266B2, “Malononitrile compound and use thereof” (Sumitomo Chemical Company, Limited, priority 2002, dated 2008)
Like-named read-outs stand apart in the source and are kept apart here.

How the values were obtained:
[1] = system: Blattella germanica; experiment: Test Example 5: filter paper with sucrose bait, male German cockroach imagoes; assay type: in vivo; conditions: 144 h, 0.7 ml on filter paper with 30 mg sucrose, two male imagoes, after 6 days, read-out: rate of dead pests
Experimental: The formulation obtained according to Formulation Example 5 using the present invention compounds (1), (25), (28), (36), (39), (40), (44)-(46), (47), (57), (58), (64), (65) and (67) respectively, was diluted with water so that the active ingredient concentration came to 500 ppm to prepare a pesticidal solution for test.
(§1) On the bottom of a polyethylene cup having a diameter of 5.5 cm, a filter paper having the same diameter was laid, and 0.7 ml of the above pesticidal solution for test was added dropwise on the filter paper, followed by putting 30 mg of sucrose on it uniformly as a bait. Two male Blattalla germanica imagoes were set free in the polyethylene cup and covered it with a lid. After 6 days, the number of surviving Blattella germanica was examined and the rate of dead pests was calculated.

[2] = system: Culex pipiens pallens; experiment: Test Example 6: last-instar mosquito larvae in treated water; assay type: in vivo; conditions: 24 h, read-out: rate of dead pests
Experimental: The formulation obtained according to Formulation Example 5 using the present invention compounds (7), (8)-(11), (14)-(16), (20), (21), (24)-(26), (28), (29), (31), (37)-(39), (44)-(47), (51), (53), (55), (57), (58), (60)-(67), (69), (70) and (71) respectively, was diluted with water so that the active ingredient concentration came to 500 ppm to prepare a pesticidal solution for test.
0.7 ml of above pesticidal solution for test was added to 100 ml of ion exchanged water (active ingredient concentration: 3.5 ppm). Twenty last-instar larvae of Culex pipiens pallens were set free in the solution. After one day, the number of surviving Culex pipiens pallens was examined and the rate of dead pests was calculated.

[3] = system: Musca domestics; experiment: Test Example 4: filter paper with sucrose bait, female housefly imagoes; assay type: in vivo, Musca domestica; conditions: 0.7 ml on filter paper with 30 mg sucrose, ten female imagoes, after 24 hours, read-out: rate of dead pests
Experimental: The formulation obtained according to Formulation Example 5 using the present invention compounds (1), (7), (13)-(17), (20), (28), (32), (36), (37), (39), (44)-(46), (53), (55), (57)-(62), (64)-(70) and (71) respectively, was diluted with water so that the active ingredient concentration came to 500 ppm to prepare a pesticidal solution for test.
as §1, with “Ten female Musca domestics” for “Two male Blattalla germanica”, “24 hours,” for “6 days,”, “Musca domestics” for “Blattella germanica”

[4] = system: Nilaparvata lugens; experiment: Test Example 1: spray on rice plants, Nilaparvata lugens larvae, 2000 ppm; assay type: in vivo; conditions: sprayed 20 ml/cup on rice plants, thirty first-instar larvae released, sixth day after release, 25° C.
Experimental: The formulation obtained according to Formulation Example 5 using the present invention compound (74) and the reference compound (1) respectively, was diluted with water so that the active ingredient concentration came to 2000 ppm to prepare a pesticidal solution for test. At the same time, 50 grams of molding Bonsoru 2 (available from Sumitomo Chemical Co., Ltd.) was put into a polyethylene cup, and 10 to 15 seeds of rice were planted in the polyethylene cup. The rice plants were grown until the second foliage leaves developed and then cut into the same height of 5 cm. The pesticidal solution for test prepared above was sprayed at the rate of 20 ml/cup to these rice plants. After the pesticidal solution sprayed onto the rice plants were dried, they were put into a plastic cup for escape prevention of test pests, and thirty first-instar larvae of Nilaparvata lugens were set free on the rice plants, followed by covering the plastic cup with a lid. Then the plastic cup was left in a greenhouse (25° C.). On the sixth day after the release of larvae of Nilaparvata lugens, the number of parasitic Nilaparvata lugens on the rice plants was examined.

[5] = system: Aphis gossypii; experiment: Test Example 3: spray on cucumber plant, Aphis gossypii; assay type: in vivo; conditions: 500 ppm, sprayed 20 ml/cup on cucumber plant with about twenty Aphis gossypii; sixth day after the treatment
Experimental: The formulation obtained according to Formulation Example 5 using the present invention compounds (23) was diluted with water so that the active ingredient concentration came to 500 ppm to prepare a pesticidal solution for test.
At the same time, molding Aisai 1 (available from KATAOKA TIKKARIN Co., Ltd.) was put into a 90 ml polyethylene cup, and seeded with cucumber. The plant was grown until the first true leaf was developed, on which about twenty Aphis gossypii were allowed to be parasitic. On the next day, the above pesticidal solution for test was sprayed at a ratio of 20 ml/cup on the cucumber plant. On the sixth day after the application, the number of Aphis gossypii was examined.

[6] = 0.7 ml of 500 ppm solution in 100 ml water (active ingredient concentration: 3.5 ppm), twenty last-instar larvae, after one day

| Structure (SMILES) | pest or weed control at 500 ppm [1] | pest or weed control at 3.5 µg/mL [2, 6] | pest or weed control at 500 ppm [3] | other results |
| --- | --- | --- | --- | --- |
| CC(C)(C)OC(=O)CC(C#N)(C#N)CCC(F)=C(F)F [present invention compound (40), 2-(tert-butoxycarbonylmethyl)-2-(3,4,4-trifluoro-3-butenyl)malononitrile] | 100% | – | – | – |
| CCCCCC(C#N)(C#N)CC(=O)OC(C)(C)C [present invention compound (29), 2-(tert-butoxycarbonylmethyl)-2-pentylmalononitrile] | – | 100% | – | – |
| C#CC(C)(CC)OC(=O)CC(C#N)(C#N)CCC(F)(F)F (centres unmarked) [present invention compound (58), 2-((1-ethyl-1-methyl-2-propynyloxycarbonyl)methyl)-2-(3,3,3-trifluoropropyl)malononitrile] | 100% | 100% | – | – |
| C#CC(C)(C)OC(=O)C(C)C(C#N)(C#N)CCC(F)(F)F (centres unmarked) [present invention compound (64), 2-(1-[(1,1-dimethyl-2-propynyl)oxycarbonyl]ethyl)-2-(3,3,3-trifluoropropyl)malononitrile] | 100% | – | – | – |
| CCCCC(C#N)(C#N)CC(=O)OC(C)(C)C [present invention compound (28), 2-(tert-butoxycarbonylmethyl)-2-butylmalononitrile] | 100% | 100% | ≥ 90% | – |
| CC(C(=O)OCC(C)(C)C)C(C#N)(C#N)CCC(F)(F)F (centres unmarked) [present invention compound (70), 2-(1-[(2,2dimethylpropoxy)carbonyl]ethyl)-2-(3,3,3-trifluoropropyl)malononitrile] | – | 100% | – | – |
| CC=CCC(C#N)(C#N)CC(=O)OC(C)(C)C [present invention compound (36), 2-(tert-butoxycarbonylmethyl)-2-(2-butenyl)malononitrile] | 100% | – | ≥ 90% | – |
| CCC(C)C(C#N)(C#N)CC(=O)OC(C)(C)C (centres unmarked) [present invention compound (32), 2-(tert-butoxycarbonylmethyl)-2-(1-methylpropyl)malononitrile] | – | – | ≥ 90% | – |
| CCCCC(C#N)(C#N)C(C)C(=O)OC(C)(C)C (centres unmarked) [present invention compound (39), 2-[1-(tert-butoxycarbonyl)ethyl]-2-butylmalononitrile] | 100% | – | ≥ 90% | – |
| CC(C)(C)OC(=O)CC(C#N)(C#N)CCCC(F)(F)F [present invention compound (51), 2-(tert-butoxycarbonylmethyl)-2-(4,4,4-trifluorobutyl)malononitrile] | – | 100% | – | – |
| CC(C)(C)SC(=O)CC(C#N)(C#N)CCC(F)(F)F [present invention compound (47), 2-[(tert-butylthio)carbonylmethyl]-2-(3,3,3-trifluoropropyl)malononitrile] | 100% | – | – | – |
| COC(=O)C(C)C(C#N)(C#N)CCC(F)(F)F (centres unmarked) [present invention compound (71), 2-[1-(methoxycarbonyl)ethyl]-2-(3,3,3-trifluoropropyl)malononitrile] | – | 100% | ≥ 90% | – |
| N#CC(C#N)(CCC(F)(F)F)CC(=O)OC1CCCCC1 [present invention compound (20), 2-(cyclohexyloxycarbonylmethyl)-2-(3,3,3-trifluoropropyl)malononitrile] | – | 100% | ≥ 90% | – |
| C#CC(C)(C)OC(=O)CC(C#N)(C#N)CCC(F)(F)F [present invention compound (57), 2-[(1,1-dimethyl-2-propynyl)oxycarbonylmethyl]-2-(3,3,3-trifluoropropyl)malononitrile] | 100% | 100% | – | – |
| CC(C)(C)OC(=O)CC(C#N)(C#N)CCC#N [present invention compound (21), 2-(tert-butoxycarbonylmethyl)-2-(2-cyanoethyl)malononitrile] | – | – | – | pest or weed control at 3.5 µg/mL [2]: 100% |
| CCOC(=O)C(C)C(C#N)(C#N)CCC(F)(F)F (centres unmarked) [present invention compound (7), 2-[1-(ethoxycarbonyl)ethyl]-2-(3,3,3-trifluoropropyl)malononitrile] | – | 100% | ≥ 90% | – |
| CC(C)CC(C)OC(=O)C(C)C(C#N)(C#N)CCC(F)(F)F (centres unmarked) [present invention compound (69), 2-(1-[(1,3-dimethylbutoxy)carbonyl]ethyl)-2-(3,3,3-trifluoropropyl)malononitrile] | – | 100% | – | – |
| CCOC(=O)CCC(C#N)C#N [reference compound (1), 2-[2-(ethoxycarbonyl)ethyl]malononitrile, reference compound] | – | – | – | number of parasitic Nilaparvata lugens [4]: ≥ 20 |
| CC(CCl)CC(C#N)(C#N)CC(=O)OC(C)(C)C (centres unmarked) [present invention compound (25), 2-(tert-butoxycarbonylmethyl)-2-(3-chloro-2-methylpropyl)malononitrile] | 100% | – | – | – |
| CC(CCl)OC(=O)CC(C#N)(C#N)CCC(F)(F)F (centres unmarked) [present invention compound (55), 2-[(2-chloro-1-methylethoxy)carbonylmethyl]-2-(3,3,3-trifluoropropyl)malononitrile] | – | 100% | ≥ 90% | – |
| CC(C)CCC(C#N)(C#N)CC(=O)OC(C)(C)C [present invention compound (31), 2-(tert-butoxycarbonylmethyl)-2-(3-methylbutyl)malononitrile] | – | 100% | – | – |
| C=CC(C)(C)OC(=O)C(C)C(C#N)(C#N)CCC(F)(F)F (centres unmarked) [present invention compound (67), 2-(1-[(1,1-dimethyl-2-propenyl)oxycarbonyl]ethyl)-2-(3,3,3-trifluoropropyl)malononitrile] | 100% | – | – | – |
| C#CC(C)(CC)OC(=O)C(C)C(C#N)(C#N)CCC(F)(F)F (centres unmarked) [present invention compound (65), 2-(1-[(1-ethyl-1-methyl-2-propynyl)oxycarbonyl]ethyl)-2-(3,3,3-trifluoropropyl)malononitrile] | 100% | – | – | – |
| CCOC(=O)CC(C)(C#N)C#N [present invention compound (74), 2-(ethoxycarbonylmethyl)-2-methylmalononitrile] | – | – | – | number of parasitic Nilaparvata lugens [4]: ≤ 3 |
| CC(C)(C)OC(=O)CC(C#N)(C#N)CCF [present invention compound (23), 2-(tert-butoxycarbonylmethyl)-2-(2-fluoroethyl)malononitrile] | – | – | – | number of parasitic Aphis gossypii [5]: ≤ 3 |
| CC(C)(C)COC(=O)CC(C#N)(C#N)CCC(F)(F)F [present invention compound (53), 2-[(2,2-dimethylpropoxy)carbonylmethyl]-2-(3,3,3-trifluoropropyl)malononitrile] | – | 100% | ≥ 90% | – |
| CCCC(C#N)(C#N)CC(=O)OC(C)(C)C [present invention compound (37), 2-(tert-butoxycarbonylmethyl)-2-propylmalononitrile] | – | – | ≥ 90% | – |
